# Laboratory results: publication PMC4745983 (Frontiers in Cell and Developmental Biology, 2016)
# Marks after values point to notes of the source that are not given here.
# Tests used:
# [1] = system: Enterobacter aerogenes CECT684; test: Growth curve inhibition of Enterobacter aerogenes CECT684; format: cell-based; conditions: growth curves of 8μM nisin and 8μM GNT16; GM17, 37°C
# E. coli CIP = test: Growth curve inhibition of E. coli CIP; format: cell-based, Escherichia coli; conditions: growth curves of 8μM nisin and 8μM GNT16; Luria-Bertani broth, 37°C
# E. coli CECT101 = format: cell-based, Escherichia coli; conditions: growth curves, 18 h; experiment repeated three times
# Experimental: (§1) L. lactis strains were cultured in M17 broth supplemented with 0.5% (w/v) glucose (GM17) for genetic manipulation or in minimal expression medium (MEM) for protein expression at 30°C (Rink et al., [2005]). E. coli CECT101 was grown in Luria-Bertani broth aerated by shaking (200 rpm) at 37°C.
# (§2) The indicator strains were first cultured until OD (600 nm) reached 0.5. When testing the MIC value, the culture was diluted 1000 times with the appropriate medium. All the tests were performed with a temperature controlled plate reader (Tecan infinite F200, Tecan Group AG) in a 96-well plate (Greiner Bio-one). The peptides were first diluted in gradient with medium and then mixed with diluted indicator strains. The final concentration of the peptides ranged from 0.00625 to 0.8 μM against L. lactis MG1363 and from 0.25 to 32 μM against E. coli CECT101 in 100 μl volume. The plate was incubated at 30°C or 37°C for 18 h depending on the indicator strain being L. lactis or E. coli, respectively. OD (600 nm) was checked every 30 min. For E. coli, 2 min of shaking was performed before every check. When testing the activity of nisin against E. coli in the presence of EDTA, an EDTA solution was prepared and added to a final concentration of 50, 110, or 250 μM. The minimal concentration of peptide causing no observed growth of indicator strains was considered as the MIC value.
# L. lactis MG1363 = format: cell-based, Lactococcus lactis; conditions: from MIC values
# Experimental: as §1, §2
# E. coli O157:H7 = conditions: indicator strain E. coli O157:H7; ref Bikker et al., [2006]; cited from earlier work
# Excerpt: (§3) Table 1 List of selected peptides with anti-Gram-negative bacteria activity. | column: MIC(μM)
# E. coli UB1005 = conditions: indicator strain E. coli UB1005; ref Hilpert et al., [2005]; cited from earlier work
# Excerpt: as §3
# E. coli ATCC 700928 = conditions: indicator strain E. coli ATCC 700928; ref Sainath Rao et al., [2013]; cited from earlier work
# Excerpt: as §3
molecule,measurement,setting,value
C=C1NC(=O)[C@H]([C@@H](C)CC)NC(=O)[C@H](NC(=O)/C(=C/C)NC(=O)[C@@H](N)[C@@H](C)CC)CSC[C@@H](C(=O)N[C@H]2C(=O)N3CCC[C@H]3C(=O)NCC(=O)N[C@H](C(=O)N[C@@H](CCCCN)C(=O)N[C@H]3C(=O)NCC(=O)N[C@@H](C)C(=O)N[C@@H](CC(C)C)C(=O)N[C@@H](CCSC)C(=O)NCC(=O)N[C@H](C(=O)N[C@@H](CC(N)=O)C(=O)N[C@@H](CCSC)C(=O)N[C@@H](CCCCN)C(=O)N[C@H]4C(=O)N[C@@H](C)C(=O)N[C@H]5C(=O)N[C@@H](CS[C@H]4C)C(=O)N[C@@H](Cc4c[nH]cn4)C(=O)N[C@H](C(=O)N[C@@H](CO)C(=O)N[C@H](C(=O)N[C@@H](Cc4c[nH]cn4)C(=O)N[C@H](C(=O)NC(=C)C(=O)N[C@@H](CCCCN)C(=O)N4CCC[C@H]4C(=O)N[C@@H](CCCNC(=N)N)C(=O)N4CCC[C@H]4C(=O)N4CCC[C@H]4C(=O)N[C@@H](Cc4c[nH]cn4)C(=O)N4CCC[C@H]4C(=O)N[C@@H](CCCNC(=N)N)C(=O)N[C@@H](CC(C)C)C(=O)O)C(C)C)[C@@H](C)CC)CS[C@H]5C)CS[C@H]3C)CS[C@H]2C)NC(=O)[C@H](CC(C)C)NC1=O [GNT16],Inhibitory activity against Enterobacter aerogenes CECT684 compared with nisin,[1],equal or slightly better inhibitory activity than nisin
same,Inhibitory activity against E. coli CIP compared with nisin,E. coli CIP,equal or slightly better inhibitory activity than nisin
same,Concentration that fully inhibits growth of E. coli CECT101 within 18 h (Figure 3),E. coli CECT101,8 µM
same,Decrease of activity against L. lactis MG1363 relative to nisin,L. lactis MG1363,32 times
GKPRPYSPRPTSHPRPIRV [Drosocin],MIC,E. coli O157:H7,25^c μM
RIWVIWRR-NH2 [Bac8c],MIC,E. coli UB1005,1.7^e μM
RLLFRKIRRLKR [EC5],MIC,E. coli ATCC 700928,4.8^d μM
